Reference: ChEMBL document CHEMBL3400132, “Design, synthesis and evaluation of novel 5,6,7-trimethoxyflavone-6-chlorotacrine hybrids as potential multifunctional agents for the treatment of Alzheimer's disease” (Bioorg Med Chem Lett, 2015)
Calls of active or inactive are those of the source. The rule behind the calls is not given here.

How the values were obtained:
[1] = Selectivity index, ratio of IC50 for equine serum BChE to IC50 for electric eel AChE
Acetylcholinesterase [2] = biological target: Acetylcholinesterase (Electrophorus electricus, UniProt O42275); assay: Inhibition of electric eel AChE using acetylthiocholine chloride as substrate after 15 mins by Ellman spectrophotometric method
Chain of Acetylcholinesterase (Electrophorus electricus, UniProt O42275) (O42275 whole entry): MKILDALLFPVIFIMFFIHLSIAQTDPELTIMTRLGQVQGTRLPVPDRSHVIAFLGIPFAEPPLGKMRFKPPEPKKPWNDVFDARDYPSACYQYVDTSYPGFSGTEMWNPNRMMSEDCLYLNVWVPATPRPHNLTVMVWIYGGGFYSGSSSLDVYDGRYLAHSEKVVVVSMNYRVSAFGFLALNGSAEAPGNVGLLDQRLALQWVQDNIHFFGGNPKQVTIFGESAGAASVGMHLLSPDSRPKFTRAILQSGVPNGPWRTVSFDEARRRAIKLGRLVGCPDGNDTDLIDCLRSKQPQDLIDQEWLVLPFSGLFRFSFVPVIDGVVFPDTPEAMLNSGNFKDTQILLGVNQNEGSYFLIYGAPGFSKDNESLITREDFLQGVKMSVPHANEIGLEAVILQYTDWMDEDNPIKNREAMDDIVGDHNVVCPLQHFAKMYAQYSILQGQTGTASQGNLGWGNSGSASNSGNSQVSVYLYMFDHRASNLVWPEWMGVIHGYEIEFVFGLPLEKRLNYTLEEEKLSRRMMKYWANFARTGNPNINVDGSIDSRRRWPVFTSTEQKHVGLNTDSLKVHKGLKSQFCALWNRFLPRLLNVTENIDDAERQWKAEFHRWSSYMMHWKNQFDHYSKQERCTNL

[3] = biological target: Amyloid-beta precursor protein (Homo sapiens) (UniProt P05067); assay: Inhibition of self-induced Abeta(1 to 42) (unknown origin) aggregation at 25 uM after 24 hrs by Thioflavin T-based fluorometric assay
Chain of Amyloid-beta precursor protein (Homo sapiens) (P05067 whole entry): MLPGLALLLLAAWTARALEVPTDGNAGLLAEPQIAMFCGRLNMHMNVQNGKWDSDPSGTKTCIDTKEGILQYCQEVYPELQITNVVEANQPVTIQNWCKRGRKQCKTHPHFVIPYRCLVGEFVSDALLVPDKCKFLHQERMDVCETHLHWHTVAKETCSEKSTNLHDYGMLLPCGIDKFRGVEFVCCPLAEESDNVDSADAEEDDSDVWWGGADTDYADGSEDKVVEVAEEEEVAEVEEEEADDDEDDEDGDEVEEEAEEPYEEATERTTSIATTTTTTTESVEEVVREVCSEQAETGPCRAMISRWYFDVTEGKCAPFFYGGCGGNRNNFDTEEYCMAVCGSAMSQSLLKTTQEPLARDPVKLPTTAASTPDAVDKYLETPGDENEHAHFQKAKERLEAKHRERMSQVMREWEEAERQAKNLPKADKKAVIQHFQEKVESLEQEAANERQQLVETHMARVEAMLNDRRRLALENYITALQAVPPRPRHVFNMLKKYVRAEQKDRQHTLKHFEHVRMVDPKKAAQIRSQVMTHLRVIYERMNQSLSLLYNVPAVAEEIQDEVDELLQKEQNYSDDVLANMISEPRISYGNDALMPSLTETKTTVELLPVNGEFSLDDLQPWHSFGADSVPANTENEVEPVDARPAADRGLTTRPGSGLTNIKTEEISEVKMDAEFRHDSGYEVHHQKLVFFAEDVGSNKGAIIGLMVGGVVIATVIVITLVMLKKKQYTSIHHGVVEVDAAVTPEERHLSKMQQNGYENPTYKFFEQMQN

[4] = Antioxidant activity assessed as Trolox equivalent per microM of compound after 15 mins by oxygen radical absorbance capacity fluorescein assay; assay type: physicochemical; settings: 0.25 h
Cholinesterase = Cholinesterase (Equus caballus, UniProt P81908); assay: Inhibition of equine serum BChE using acetylthiocholine chloride as substrate after 15 mins by Ellman spectrophotometric method
Chain of Cholinesterase (P81908 whole entry): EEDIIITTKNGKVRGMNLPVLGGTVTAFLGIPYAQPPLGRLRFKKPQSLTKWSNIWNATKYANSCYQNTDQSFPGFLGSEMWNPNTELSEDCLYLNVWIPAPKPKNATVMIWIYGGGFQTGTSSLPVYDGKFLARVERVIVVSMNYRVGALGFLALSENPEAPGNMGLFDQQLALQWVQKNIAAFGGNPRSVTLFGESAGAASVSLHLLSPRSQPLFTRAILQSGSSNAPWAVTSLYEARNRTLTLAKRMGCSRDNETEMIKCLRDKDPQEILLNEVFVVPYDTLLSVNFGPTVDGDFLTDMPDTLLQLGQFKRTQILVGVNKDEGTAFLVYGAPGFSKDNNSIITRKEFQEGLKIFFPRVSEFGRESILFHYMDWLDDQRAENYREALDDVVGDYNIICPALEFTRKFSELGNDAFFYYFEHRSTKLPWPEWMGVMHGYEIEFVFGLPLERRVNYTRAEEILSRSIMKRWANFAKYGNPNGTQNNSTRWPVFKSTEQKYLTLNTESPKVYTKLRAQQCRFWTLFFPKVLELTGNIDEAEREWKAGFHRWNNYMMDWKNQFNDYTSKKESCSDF

Acetylcholinesterase [5] = biological target: Acetylcholinesterase (Homo sapiens, UniProt P22303); assay: Inhibition of human erythrocyte AChE using acetylthiocholine chloride as substrate after 15 mins by Ellman spectrophotometric method
Chain of Acetylcholinesterase (Homo sapiens, UniProt P22303) (P22303 whole entry): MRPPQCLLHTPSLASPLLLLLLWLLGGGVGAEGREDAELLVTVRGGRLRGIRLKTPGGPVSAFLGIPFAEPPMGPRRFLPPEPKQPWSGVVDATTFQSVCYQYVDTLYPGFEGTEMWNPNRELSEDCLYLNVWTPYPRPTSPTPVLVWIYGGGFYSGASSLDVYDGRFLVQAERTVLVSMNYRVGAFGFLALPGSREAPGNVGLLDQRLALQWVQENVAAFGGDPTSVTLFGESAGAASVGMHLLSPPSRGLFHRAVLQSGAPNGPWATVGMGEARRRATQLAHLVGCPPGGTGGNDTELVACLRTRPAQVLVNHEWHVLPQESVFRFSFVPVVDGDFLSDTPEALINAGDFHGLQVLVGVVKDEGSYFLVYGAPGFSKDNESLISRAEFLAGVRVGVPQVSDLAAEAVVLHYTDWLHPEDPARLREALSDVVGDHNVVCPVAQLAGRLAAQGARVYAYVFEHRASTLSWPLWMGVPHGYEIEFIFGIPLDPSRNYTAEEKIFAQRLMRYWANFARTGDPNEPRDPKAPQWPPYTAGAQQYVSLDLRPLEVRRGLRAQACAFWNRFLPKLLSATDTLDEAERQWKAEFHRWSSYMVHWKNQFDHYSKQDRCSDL

[6] = Permeability of the compound in DMSO-PBS/EtOH solution at 100 ug/ml by PAMPA; assay type: ADME; settings: read-out: permeability
[7] = biological target: Acetylcholinesterase (Electrophorus electricus) (UniProt O42275); assay: Mixed-type inhibition of electric eel AChE using acetylthiocholine chloride as substrate after 15 mins by Lineweaver-Burk plot method
Chain of Acetylcholinesterase (Electrophorus electricus) (O42275 24-633 limits assumed): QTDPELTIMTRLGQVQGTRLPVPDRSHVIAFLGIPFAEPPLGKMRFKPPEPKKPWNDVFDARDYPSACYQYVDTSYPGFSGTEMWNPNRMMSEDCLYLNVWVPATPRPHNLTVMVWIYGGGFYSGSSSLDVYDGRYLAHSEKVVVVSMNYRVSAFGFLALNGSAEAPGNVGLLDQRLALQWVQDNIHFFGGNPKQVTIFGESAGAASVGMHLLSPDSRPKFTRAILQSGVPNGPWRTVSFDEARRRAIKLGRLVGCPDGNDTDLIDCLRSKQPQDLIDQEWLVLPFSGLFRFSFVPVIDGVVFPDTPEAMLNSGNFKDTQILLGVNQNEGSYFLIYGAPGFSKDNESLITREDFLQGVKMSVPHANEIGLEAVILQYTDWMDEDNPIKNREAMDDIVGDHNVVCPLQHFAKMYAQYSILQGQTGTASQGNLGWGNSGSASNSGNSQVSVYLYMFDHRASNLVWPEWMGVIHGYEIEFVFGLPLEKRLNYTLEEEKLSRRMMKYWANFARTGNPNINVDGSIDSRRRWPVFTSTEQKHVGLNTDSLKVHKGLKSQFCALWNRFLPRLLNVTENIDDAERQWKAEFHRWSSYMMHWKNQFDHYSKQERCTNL

PC-12 = assay: Protective activity against H2O2-induced rat PC12 cell injury assessed as cell viability incubated at 5 uM for 3 hrs before H2O2 addition measured after 5 hrs by MTT assay relative to untreated control; assay type: functional; settings: read-out: Activity

Structure (SMILES)	Ratio IC50 [1]	IC50 (Acetylcholinesterase [2]) [nM]	inhibition [3] [%]	fold change (Trolox equivalents (ORAC)) [4]	IC50 (Cholinesterase) [nM]	IC50 (Acetylcholinesterase [5]) [nM]	Papp at 100 ug/ml [6] [×10⁻⁶ cm/s]	inhibition [7]	viability at 5 µM (PC-12) [%]	fold change (FC) [4]
COc1cc2oc(-c3ccc(OCC(=O)NCCCCNc4c5c(nc6cc(Cl)ccc46)CCCC5)cc3)cc(=O)c2c(OC)c1OC	23.5	52.8	30.3	0.58	1240					
COc1cc2oc(-c3ccc(O)cc3)cc(=O)c2c(OC)c1OC		> 100000	11.2	5.7	> 100000					
COc1cc2oc(-c3ccc(OCC(=O)NCCCCCNc4c5c(nc6cc(Cl)ccc46)CCCC5)cc3)cc(=O)c2c(OC)c1OC	36.2	12.8	33.8	0.55	463	6.9	7.92	Active	45.3	
COc1cc2oc(-c3cccc(OCC(=O)NCCCNc4c5c(nc6cc(Cl)ccc46)CCCC5)c3)cc(=O)c2c(OC)c1OC	15.4	38.2	30.6	0.57	819					
COc1cc2oc(-c3cccc(OCC(=O)NCCCCCNc4c5c(nc6cc(Cl)ccc46)CCCC5)c3)cc(=O)c2c(OC)c1OC	12.7	20.9	32.5	0.53	291	17.3				
Nc1c2c(nc3cc(Cl)ccc13)CCCC2					16.5					0.17
COc1cc2oc(-c3ccc(OCC(=O)NCCCNc4c5c(nc6cc(Cl)ccc46)CCCC5)cc3)cc(=O)c2c(OC)c1OC	13.9	29.4	25.6	0.62	549					
COc1cc2oc(-c3ccc(OCC(=O)NCCCCCCNc4c5c(nc6cc(Cl)ccc46)CCCC5)cc3)cc(=O)c2c(OC)c1OC	10.3	41.3	35.5	0.52	321	21.6				
COc1cc2oc(-c3cccc(OCC(=O)NCCCCCCNc4c5c(nc6cc(Cl)ccc46)CCCC5)c3)cc(=O)c2c(OC)c1OC	20.5	47.2	34.3	0.47	969	32.5				
COc1cc2oc(-c3cccc(OCC(=O)NCCCCNc4c5c(nc6cc(Cl)ccc46)CCCC5)c3)cc(=O)c2c(OC)c1OC	15	68.2	31.8	0.55	1020					
COc1cc2oc(-c3cccc(O)c3)cc(=O)c2c(OC)c1OC		> 100000	17.4	3.6	> 100000					
